From US8304202B2, “Interaction of BIM with TRIM2” (priority 2007, dated 2012)
“Also recorded” adds a separate entry of the source. Read-outs that look alike come from different tables or passages of the source. Residues, ends and D or L forms follow the SMILES beside them. *: point of attachment. Cbz = O=C(OCc1ccccc1)*

Experiments:
[1] = test system: rat cortical neuronal cultures; assay: Rapid ischemic tolerance: cell death after harmful ischemia (OGD) with preconditioning ischemia, propidium iodide staining; type: cell-based; settings: for neuroprotective effect of preconditioning: 10 μM, one hour incubation following 30 minutes of preconditioning OGD, cell death 24 hours after 120 minutes of harmful ischemia; for rapid ischemic tolerance: neuronal cultures, preconditioning ischemia
Description: (§1) Neurons were exposed to ischemic conditions, namely, oxygen and glucose deprivation (OGD), by washing the cells with phosphate-buffered saline (NaCl ([…]), KCl (2.7 mM), Na2HPO4 (10 mM), KH2PO4 (1.7 mM), pH 7.4) supplemented with 0.5 mM CaCl2, 1.0 mM MgCl2 and placing the cells (in culture dishes) in an anaerobic chamber (85% N2, 5% H2, 10% CO2; 35° C.) for 30 minutes (preconditioning ischemia) or 120 minutes (harmful ischemia).
Cell death was assessed 24 hours following 120 minutes of harmful ischemia using propidium iodide staining. Data shown are mean±S.E. (n=8). Data were analyzed by one-way ANOVA, with Bonferroni's post-hoc test. *, p<0.05.
Cells were incubated for one hour following 30 minutes of preconditioning OGD with either PD98059 or U0126 (both 10 μM), which are compounds that prevent p42/p44 MAPK activation by inhibiting an upstream regulatory MAPK kinase (MEK).

Bim protein = Bim protein levels by immunoblot following preconditioning ischemia; type: cell-based, rat; settings: for Bim degradation: following preconditioning ischemia
Description: as §1
Bim protein levels were determined by immunoblotting, and then the blots were re-probed with α-tubulin to control for loading.
(§2) In the top and middle panels of the figure, phosphorylation of p42/p44 MAPK was determined by immunoblot, and the blots were re-probed for total p42/p44 MAPK expression. In the bottom panel of the figure, cells were subjected to preconditioning ischemia and then recovered in the presence of U0126. Bim expression was determined by immunoblot. Data shown are representative of three independent experiments.
The effect of U0126 on Bim protein levels also was investigated following 30 minutes of OGD.

MCF-7 cells = assay: Cell death as LDH release (absorbance at 492 nm) in MCF-7 cells; type: cell-based; settings: 100 μM U0126
Description: (§3) The stabilization of Bim in cells by blocking Bim degradation may sensitize the cells to an additional anti-cancer agent and promote cell death. […] Cell death was measured as a release of the enzyme lactate dehydrogenase (LDH), which is detected as absorbance at 492 nm.
(§4) Cells were incubated with various concentrations of doxorubicin (μM) for 72 h, in the absence (solid squares) or presence (open circles) of 100 μM U0126.

HCC1419 cells = assay: Cell death as LDH release (absorbance at 492 nm) in HCC1419 cells; type: cell-based; settings: for EC50: Homo sapiens, LDH release
Description: as §3, §4

[2] = test system: GST-Bim polypeptide with TRIM2 protein; settings: cells incubated with inhibitor, preconditioning ischemia
Description: To follow up on this observation, co-immunoprecipitation was utilized to determine whether TRIM2 binding to Bim correlates with the degradation of Bim following preconditioning ischemia in neuronal cultures. GST-Bim was incubated with cell lysates from control neurons (“CONT”; open bars) and neurons exposed to preconditioning ischemia (“PC”; hatched bars). GST-Bim interacting with TRIM2 then was co-immunoprecipitated with anti-TRIM 2 antibody and detected by immunoblot with an anti-GST antibody.

Bim = settings: following preconditioning ischemia
Excerpt: The experiments described in this example investigate the degradation of the pro-apoptotic Bcl-2 family member Bim as a mechanism of rapid ischemic tolerance.

p42/p44 MAPK = test system: p42/p44 MAPK
Description: as §2
As a control, the same blot was probed for non-phospho-p42/p44 MAPK.

COc1cccc(-c2cc(=O)c3ccccc3o2)c1N [PD98059, 2-(2-Amino-3-methoxyphenyl)-4H-1-benzopyran-4-one]
neuroprotective effect of preconditioning [1]: blocked

CC(C)C[C@@H](C=O)NC(=O)[C@H](CC(C)C)NC(=O)[C@H](CC(C)C)NC(=O)OCc1ccccc1 [MG-132] (Cbz-Leu-Leu-Leu-aldehyde)
Bim degradation (Bim protein): prevented Bim degradation
rapid ischemic tolerance [1]: blocked rapid ischemic tolerance

COc1cccc2c1C(=O)c1c(O)c3c(c(O)c1C2=O)C[C@@](O)(C(=O)CO)C[C@@H]3O[C@H]1C[C@H](N)[C@H](O)[C@H](C)O1 [doxorubicin]
responsiveness to combination of doxorubicin and U0126 relative to doxorubicin alone (MCF-7 cells; MCF-7 cells, 72 h): no increased responsiveness
shift in the response to doxorubicin when U0126 is present (HCC1419 cells; HCC1419 cells, 72 h, 100 μM U0126): leftward shift
EC50 (HCC1419 cells; HCC1419 cells, 72 h, absence of U0126, read-out: calculated EC50 of doxorubicin alone): 60 µM
EC50 (HCC1419 cells; HCC1419 cells, 72 h, presence of 100 μM U0126, read-out: calculated EC50 of doxorubicin when combined with U0126): 0.01 µM

N#CC(=C(/N)Sc1ccccc1N)/C(C#N)=C(\N)Sc1ccccc1N [U0126, 1,4-diamino-2,3-dicyano-1,4-bis(2-aminophenylthio)butadiene]
enhancement of doxorubicin-induced cell death (MCF-7 cells; MCF-7 cells (high Bim:TRIM2 ratio)): not observed
co-immunoprecipitation of GST-Bim polypeptide with TRIM2 protein [2]: reduced
Bim ubiquitination (Bim): reduced
enhancement of doxorubicin-induced cell death (HCC1419 cells; HCC1419 cells (low Bim:TRIM2 ratio), 100 μM U0126): enhancement
cell death (LDH release) (HCC1419 cells; HCC1419 cells, U0126 alone): does not induce cell death
Bim protein expression in control-treated cells (Bim protein; control-treated cells, no preconditioning): no effect
Bim degradation (Bim protein): reduced; also recorded: blocks
decrease in Bim protein expression at one hour following 30 minutes of preconditioning ischemia (Bim protein; recovery in the presence of U0126): blocked
neuroprotective effect of preconditioning [1]: blocked
rapid ischemic tolerance [1]: blocked rapid ischemic tolerance; also recorded: blocks
phosphorylation of MAPK in control cells (p42/p44 MAPK; control cells treated with U0126 alone): no phosphorylation of MAPK
total levels of p42/p44 MAPK (p42/p44 MAPK; following preconditioning ischemia or U0126 treatment): did not change
increase in p42/p44 MAPK phosphorylation following preconditioning ischemia (p42/p44 MAPK; one hour following preconditioning ischemia): blocked
